ChEMBL document CHEMBL4052762, “Synthesis and biological evaluation of pyrrole-based chalcones as CYP1 enzyme inhibitors, for possible prevention of cancer and overcoming cisplatin resistance” (Bioorg Med Chem Lett, 2017)

Legend:
Cytochrome P450 2C9 = Cytochrome P450 2C9 (Homo sapiens, UniProt P11712); assay: Inhibition of human CYP2C9 bound to yeast microsomal membrane using 3-cyano-7-ethoxycoumarin as substrate after 10 mins by fluorescence assay; type: ADME
Cytochrome P450 2D6 [1] = molecular target: T1, Cytochrome P450 2D6 (Homo sapiens, UniProt P10635); assay: Inhibition of human CYP2D6 expressed in HEK293 cells using fluorogenic 7-ethoxy-methyloxy-3-cyanocoumarin as substrate preincubated for 30 mins followed by substrate addition measured for 60 mins by fluorescence assay; type: ADME, cell-based
T1 sequence (P10635 whole entry): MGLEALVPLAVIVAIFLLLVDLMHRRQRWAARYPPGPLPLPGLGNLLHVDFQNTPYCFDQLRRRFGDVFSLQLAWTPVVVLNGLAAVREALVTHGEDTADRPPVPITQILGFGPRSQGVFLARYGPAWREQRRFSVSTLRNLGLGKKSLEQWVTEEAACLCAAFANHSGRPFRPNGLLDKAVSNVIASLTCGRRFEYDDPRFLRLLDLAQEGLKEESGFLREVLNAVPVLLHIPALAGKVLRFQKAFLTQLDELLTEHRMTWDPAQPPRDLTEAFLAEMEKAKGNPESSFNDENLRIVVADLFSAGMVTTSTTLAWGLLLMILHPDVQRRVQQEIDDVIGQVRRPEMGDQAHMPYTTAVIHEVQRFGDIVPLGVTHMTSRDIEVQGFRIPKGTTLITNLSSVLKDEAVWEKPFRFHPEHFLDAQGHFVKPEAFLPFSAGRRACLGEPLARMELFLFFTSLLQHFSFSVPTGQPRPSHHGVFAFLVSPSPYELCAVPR

Cytochrome P450 1A1 [2] = molecular target: T2, Cytochrome P450 1A1 (Homo sapiens, UniProt P04798); assay: Inhibition of human CYP1A1 expressed in HEK293 cells using fluorogenic substrate 7-ethoxyresorufin as substrate preincubated for 30 mins followed by substrate addition measured for 60 mins by fluorescence assay; type: cell-based
T2 sequence (P04798 whole entry): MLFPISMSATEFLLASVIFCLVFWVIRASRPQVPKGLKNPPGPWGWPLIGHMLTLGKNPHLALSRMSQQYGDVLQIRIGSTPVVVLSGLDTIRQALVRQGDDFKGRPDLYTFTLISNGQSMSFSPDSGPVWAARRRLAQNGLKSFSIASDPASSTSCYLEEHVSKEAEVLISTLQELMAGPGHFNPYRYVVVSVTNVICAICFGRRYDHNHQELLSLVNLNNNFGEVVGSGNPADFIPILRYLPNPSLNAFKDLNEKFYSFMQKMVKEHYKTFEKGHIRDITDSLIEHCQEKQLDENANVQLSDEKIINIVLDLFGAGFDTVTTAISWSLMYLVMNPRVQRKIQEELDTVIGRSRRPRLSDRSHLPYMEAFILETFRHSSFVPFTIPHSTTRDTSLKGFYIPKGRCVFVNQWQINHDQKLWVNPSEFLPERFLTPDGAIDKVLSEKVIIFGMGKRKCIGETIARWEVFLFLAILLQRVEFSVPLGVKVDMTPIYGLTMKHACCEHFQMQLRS

Cytochrome P450 1A2 [3] = molecular target: T3, Cytochrome P450 1A2 (Homo sapiens, UniProt P05177); assay: Inhibition of human CYP1A2 bound to yeast microsomal membrane using 3-cyano-7-ethoxycoumarin as substrate after 10 mins by fluorescence assay
T3 sequence (P05177 whole entry): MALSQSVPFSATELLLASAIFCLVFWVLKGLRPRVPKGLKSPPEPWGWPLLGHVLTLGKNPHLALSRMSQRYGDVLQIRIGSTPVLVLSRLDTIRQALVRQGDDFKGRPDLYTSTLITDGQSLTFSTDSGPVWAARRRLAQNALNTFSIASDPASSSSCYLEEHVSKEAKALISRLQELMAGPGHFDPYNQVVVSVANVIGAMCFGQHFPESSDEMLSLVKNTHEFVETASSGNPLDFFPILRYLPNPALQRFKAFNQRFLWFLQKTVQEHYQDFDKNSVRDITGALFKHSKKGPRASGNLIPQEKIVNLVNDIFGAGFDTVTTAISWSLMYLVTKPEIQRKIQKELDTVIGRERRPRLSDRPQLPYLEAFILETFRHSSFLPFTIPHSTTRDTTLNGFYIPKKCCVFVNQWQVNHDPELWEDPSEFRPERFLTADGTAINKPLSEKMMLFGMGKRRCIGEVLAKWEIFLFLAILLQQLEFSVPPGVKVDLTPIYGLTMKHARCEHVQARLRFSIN

Cytochrome P450 3A4 = Cytochrome P450 3A4 (Homo sapiens, UniProt P08684); assay: Inhibition of human CYP3A4 bound to yeast microsomal membrane using dibenzylfluorescein as substrate after 10 mins by fluorescence assay; type: ADME
Sequence of Cytochrome P450 3A4 (P08684 whole entry): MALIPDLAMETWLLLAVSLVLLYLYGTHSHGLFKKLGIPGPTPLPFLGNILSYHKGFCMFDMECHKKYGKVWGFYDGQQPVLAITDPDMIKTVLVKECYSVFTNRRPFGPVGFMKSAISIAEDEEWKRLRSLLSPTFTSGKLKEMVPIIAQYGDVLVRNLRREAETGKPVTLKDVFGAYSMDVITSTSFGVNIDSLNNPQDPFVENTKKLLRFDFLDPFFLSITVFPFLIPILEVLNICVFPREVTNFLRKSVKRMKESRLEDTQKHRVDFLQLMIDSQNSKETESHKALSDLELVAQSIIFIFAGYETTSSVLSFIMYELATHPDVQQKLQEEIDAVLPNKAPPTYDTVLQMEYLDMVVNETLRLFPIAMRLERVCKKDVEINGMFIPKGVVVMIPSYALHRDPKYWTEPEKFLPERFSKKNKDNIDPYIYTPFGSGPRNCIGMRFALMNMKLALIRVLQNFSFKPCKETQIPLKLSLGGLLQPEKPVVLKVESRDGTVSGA

[4] = molecular target: T4, Aryl hydrocarbon receptor (Homo sapiens, UniProt P35869); assay: Antagonist activity at human AhR expressed in Saccharomyces cerevisiae W303-1A (ATCC 208352) transformed with an episomal plasmid containing a minimal CYC1 promoter, with a concatemer of five XRE enhancer sequences, linked to eGFP reporter gene and co-expressing ARNT assessed as inhibition of B[a]P agonist induced XRE-driven eGFP expression by measuring eGFP units at 10 uM after 18 hrs by …
T4 sequence (P35869 whole entry): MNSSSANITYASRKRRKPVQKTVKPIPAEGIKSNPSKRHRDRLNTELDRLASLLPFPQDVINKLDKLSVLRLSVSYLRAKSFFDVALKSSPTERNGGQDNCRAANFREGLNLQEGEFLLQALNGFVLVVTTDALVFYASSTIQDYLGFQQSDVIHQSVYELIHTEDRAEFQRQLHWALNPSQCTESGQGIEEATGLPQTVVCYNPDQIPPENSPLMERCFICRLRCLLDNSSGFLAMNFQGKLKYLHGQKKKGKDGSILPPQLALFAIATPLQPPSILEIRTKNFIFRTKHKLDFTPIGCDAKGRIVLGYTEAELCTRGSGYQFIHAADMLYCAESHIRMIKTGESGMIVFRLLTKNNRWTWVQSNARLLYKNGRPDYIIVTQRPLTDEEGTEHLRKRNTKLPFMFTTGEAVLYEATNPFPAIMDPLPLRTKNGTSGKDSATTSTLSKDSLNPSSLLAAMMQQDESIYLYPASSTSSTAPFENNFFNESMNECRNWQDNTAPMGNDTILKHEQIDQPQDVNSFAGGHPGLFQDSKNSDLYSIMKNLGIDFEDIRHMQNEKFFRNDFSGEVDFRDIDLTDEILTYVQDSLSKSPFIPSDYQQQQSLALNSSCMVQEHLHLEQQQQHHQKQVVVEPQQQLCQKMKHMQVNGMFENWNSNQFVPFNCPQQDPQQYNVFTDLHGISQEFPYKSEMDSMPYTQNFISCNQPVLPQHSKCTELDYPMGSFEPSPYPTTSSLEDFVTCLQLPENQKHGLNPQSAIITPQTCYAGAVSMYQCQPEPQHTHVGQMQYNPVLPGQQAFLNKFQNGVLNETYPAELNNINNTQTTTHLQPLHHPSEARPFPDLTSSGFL

Cytochrome P450 2D6 [5] = molecular target: T1, Cytochrome P450 2D6; assay: Inhibition of human CYP2D6 bound to yeast microsomal membrane using 7-ethoxy-methyloxy-3-cyanocoumarin as substrate after 10 mins by fluorescence assay; type: ADME
[6] = molecular target: T4, Aryl hydrocarbon receptor; assay: Antagonist activity at human AhR expressed in Saccharomyces cerevisiae W303-1A (ATCC 208352) transformed with an episomal plasmid containing a minimal CYC1 promoter, with a concatemer of five XRE enhancer sequences, linked to eGFP reporter gene and co-expressing ARNT assessed as inhibition of B[a]P agonist induced XRE-driven eGFP expression by measuring eGFP units at 20 uM after 18 hrs by …
Cytochrome P450 2C19 = Cytochrome P450 2C19 (Homo sapiens, UniProt P33261); assay: Inhibition of human CYP2C19 bound to yeast microsomal membrane using 3-cyano-7-ethoxycoumarin as substrate after 10 mins by fluorescence assay; type: ADME
Sequence of Cytochrome P450 2C19 (P33261 whole entry): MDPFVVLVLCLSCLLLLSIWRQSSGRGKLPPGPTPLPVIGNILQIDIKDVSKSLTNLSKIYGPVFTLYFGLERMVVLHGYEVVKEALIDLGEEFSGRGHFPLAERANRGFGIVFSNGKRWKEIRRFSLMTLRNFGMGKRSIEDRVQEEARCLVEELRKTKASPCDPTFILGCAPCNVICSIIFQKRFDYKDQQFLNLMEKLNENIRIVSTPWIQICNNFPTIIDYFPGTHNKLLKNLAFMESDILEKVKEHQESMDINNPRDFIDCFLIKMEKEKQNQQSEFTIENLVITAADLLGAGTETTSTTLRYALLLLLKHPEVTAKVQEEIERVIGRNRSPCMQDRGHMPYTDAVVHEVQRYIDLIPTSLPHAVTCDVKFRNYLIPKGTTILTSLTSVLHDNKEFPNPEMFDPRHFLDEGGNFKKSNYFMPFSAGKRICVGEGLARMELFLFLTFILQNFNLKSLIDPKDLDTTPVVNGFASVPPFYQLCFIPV

Cytochrome P450 1A2 [7] = molecular target: T3, Cytochrome P450 1A2; assay: Inhibition of human CYP1A2 expressed in HEK293 cells using fluorogenic 3-cyano-7-ethoxycoumarin as substrate preincubated for 30 mins followed by substrate addition measured for 60 mins by fluorescence assay; type: cell-based
Cytochrome P450 1A1 [8] = molecular target: T2, Cytochrome P450 1A1; assay: Inhibition of human CYP1A1 bound to yeast microsomal membrane using 7-ethoxyresorufin as substrate after 10 mins by fluorescence assay

Sequence of Cytochrome P450 2C9 (P11712 whole entry): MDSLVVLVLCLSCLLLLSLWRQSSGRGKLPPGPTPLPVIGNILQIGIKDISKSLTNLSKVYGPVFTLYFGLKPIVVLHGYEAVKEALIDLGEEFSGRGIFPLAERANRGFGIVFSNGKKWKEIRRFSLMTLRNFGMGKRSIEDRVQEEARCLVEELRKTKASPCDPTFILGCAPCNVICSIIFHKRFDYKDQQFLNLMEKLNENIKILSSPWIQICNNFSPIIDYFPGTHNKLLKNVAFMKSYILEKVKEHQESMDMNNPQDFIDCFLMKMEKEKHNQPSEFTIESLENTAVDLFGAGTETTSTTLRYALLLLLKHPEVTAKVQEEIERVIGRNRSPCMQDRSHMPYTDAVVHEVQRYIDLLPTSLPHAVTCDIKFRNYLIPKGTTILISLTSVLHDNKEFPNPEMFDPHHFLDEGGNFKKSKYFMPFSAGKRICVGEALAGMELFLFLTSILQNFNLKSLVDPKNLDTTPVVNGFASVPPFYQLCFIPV

COc1ccccc1/C=C/C(=O)c1ccc[nH]1
IC50 (Cytochrome P450 2C9): > 20 µM | IC50 (Cytochrome P450 2D6 [1]): 20 µM | IC50 (Cytochrome P450 1A1 [2]): 1.2 µM | IC50 (Cytochrome P450 1A2 [3]): 1.1 µM | IC50 (Cytochrome P450 3A4): > 20 µM | Activity [4]: 150 U | IC50 (Cytochrome P450 2D6 [5]): 20 µM | Activity [6]: 120 U | IC50 (Cytochrome P450 2C19): > 20 µM | IC50 (Cytochrome P450 1A2 [7]): 1.1 µM | IC50 (Cytochrome P450 1A1 [8]): 0.9 µM

O=C(/C=C/c1ccc(OC(F)(F)F)cc1)c1ccc[nH]1
IC50 (Cytochrome P450 2C9): > 20 µM | IC50 (Cytochrome P450 2D6 [1]): > 20 µM | IC50 (Cytochrome P450 1A1 [2]): > 20 µM | IC50 (Cytochrome P450 1A2 [3]): > 20 µM | IC50 (Cytochrome P450 3A4): > 20 µM | Activity [4]: 955 U | IC50 (Cytochrome P450 2D6 [5]): 16 µM | Activity [6]: 955 U | IC50 (Cytochrome P450 2C19): > 20 µM | IC50 (Cytochrome P450 1A2 [7]): > 20 µM | IC50 (Cytochrome P450 1A1 [8]): > 20 µM

O=C(/C=C/c1ccccc1Cl)c1ccc[nH]1
IC50 (Cytochrome P450 2C9): > 20 µM | IC50 (Cytochrome P450 2D6 [1]): > 10 µM | IC50 (Cytochrome P450 1A1 [2]): > 20 µM | IC50 (Cytochrome P450 1A2 [3]): 0.7 µM | IC50 (Cytochrome P450 3A4): > 20 µM | Activity [4]: 455 U | IC50 (Cytochrome P450 2D6 [5]): 12 µM | Activity [6]: 285 U | IC50 (Cytochrome P450 2C19): > 20 µM | IC50 (Cytochrome P450 1A2 [7]): 0.9 µM | IC50 (Cytochrome P450 1A1 [8]): 9.1 µM
